The values below are quoted from earlier work in article PMC7036871, “Identification and Characterization of pantocin wh-1, a Novel Cyclic Polypeptide Produced by Pantoea dispersa W18” (Molecules, 2020).

In this data set the test system is M. tuberculosis. Further details: method as in 8 sources, ref [15],[16] = [15]; PMID 24684906; doi:10.1016/j.chembiol.2014.01.014; 15. Gavrish E. Sit C.S. Cao S. Kandror O. Spoering A. Peoples A. Ling L. Fetterman A. Hughes D. Bissell A. Lassomycin, a ribosomally synthesized cyclic peptide, kills mycobacterium tuberculosis by tar || [16]; PMID 24766844; doi:10.1016/j.chembiol.2014.04.002; 16. Parish T. Targeting mycobacterial proteolytic complexes with natural products Chem. Biol. 2014 21 437 438 10.1016/j.chembiol.2014.04.002 24766844 ||| ref [17] = [17]; PMID 25421483; doi:10.1128/AAC.04054-14; 17. Gao W. Kim J.Y. Anderson J.R. Akopian T. Hong S. Jin Y.Y. Kandror O. Kim J.W. Lee I.A. Lee S.Y. The cyclic peptide ecumicin targeting ClpC1 is active against Mycobacterium tuberculosis in vivo Ant ||| ref [18],[19] = [18]; PMID 21969594; doi:10.1073/pnas.1110385108; 18. Sass P. Josten M. Famulla K. Schiffer G. Sahl H.G. Hamoen L. Brotz-Oesterhelt H. Antibiotic acyldepsipeptides activate ClpP peptidase to degrade the cell division protein FtsZ Proc. Natl. Acad. Sc || [19]; PMID 22123255; doi:10.1128/JB.06142-11; 19. Ollinger J. O’Malley T. Kesicki E.A. Odingo J. Parish T. Validation of the Essential ClpP Protease in Mycobacterium tuberculosis as a Novel Drug Target J. Bacteriol. 2012 194 663 668 10.1128/JB.06 ||| ref [20] = [20]; PMID 22987724; doi:10.1002/emmm.201201689; 20. Hartkoorn R.C. Sala C. Neres J. Pojer F. Magnet S. Mukherjee R. Uplekar S. Boy-Rottger S. Altmann K.H. Cole S.T. Towards a new tuberculosis drug: Pyridomycin-nature’s isoniazid Embo. Mol. Med. 201 ||| ref [21] = [21]; PMID 10747933; doi:10.1074/jbc.M000569200; 21. Kremer L. Douglas J.D. Baulard A.R. Morehouse C. Guy M.R. Alland D. Dover L.G. Lakey J.H. Jacobs W.R. Brennan P.J. Thiolactomycin and related analogues as novel anti-mycobacterial agents targeting ||| ... As to conditions: anti-TB, cited from earlier work.

Values after ≈ are worked out from the molar mass of the structure shown. Where two headings read alike, the source gives them in different places.

In general, MIC refers to the lowest concentration found to suppress growth. For the molecule `C=C/C(C)=C/[C@@]1(C)SC(=O)C(C)=C1O` [Thiolactomycin], the MIC (target β-ketoacyl-ACP synthase, ref [21]) is 92.5 µM (≈ 19.5 µg/mL).

For Cyclomarin A, the MIC (target ClpC1, ref [22],[23]) was 0.3 to 2.5 µM.

As to Ecumicin, the MIC (target ClpC1, ref [17]) was 0.13 to 0.3 µM.

Consider Ilamycins, for which the MIC (target not given, ref [25]) is 0.0098 µM.

Consider Lassomycin, for which the minimum inhibitory concentration (MIC) (target ClpC1, ref [15],[16]) was 0.42 to 1.57 µM.

Teixobactin: the MIC (target lipid II, ref [24]) was 0.125 µM.
